Results as given in patent publication US20230123334A1, “AMINO LIPID COMPOUND, PREPARATION METHOD THEREFOR, AND APPLICATION THEREOF” (SHENZHEN SHENXIN BIOTECHNOLOGY CO., LTD., priority 2020, published 2023).

Test system: HEK293 cells
Experiment: Preliminary screening as mRNA vectors, EGFP mRNA transfection of HEK293 cells
Format: cell-based
Conditions: EGFP mRNA 50 ng per well, 96-well plates; percentage of GFP fluorescent cells relative to total number of cells (Hoechst)
Method in brief: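 Each well of HEK293 cells received 50 ng of EGFP mRNA. Efficiency was expressed as percent GFP-expressing cells over Hoechst-defined total cell number.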

Compound	Absolute mRNA transfection efficiency in HEK293 cells
CCCCCCCCCCCCCCCCSc1nc(NCCCCCCCCCCCCC)nc(NCCN2CCCC2)n1 [Compound D3S16N13]	0.4%
CCCCCCCCCCCCCCCCSc1nc(NCCCCCCCCCCCCCCC)nc(NCCN2CCCC2)n1 [Compound D3S16N15]	0.0%
CCCCCCCCCCCCCCCCNc1nc(NCCN2CCCC2)nc(SCCCCCCCCCCCCCCCC)n1 [Compound D3S16N16]	1.1%
CCCCCCCCCCCCCCCCCCNc1nc(NCCN2CCCC2)nc(SCCCCCCCCCCCCCCCC)n1 [Compound D3S16N18]	14.1%
CCCCCCCCCCCCCCCCCCSc1nc(NCCCCCC)nc(NCCN2CCCC2)n1 [Compound D3S18N6]	58.9%
CCCCCCCCCCCCCCCCCCSc1nc(NCCCCCCC)nc(NCCN2CCCC2)n1 [Compound D3S18N7]	97.2%
CCCCCCCCCCCCCCCCCCSc1nc(NCCCCCCCC)nc(NCCN2CCCC2)n1 [Compound D3S18N8]	93.3%
CCCCCCCCCCCCCCCCCCSc1nc(NCCCCCCCCC)nc(NCCN2CCCC2)n1 [Compound D3S18N9]	72.3%
CCCCCCCCCCCCCCCCCCSc1nc(NCCCCCCCCCCC)nc(NCCN2CCCC2)n1 [Compound D3S18N11]	30.9%
CCCCCCCCCCCCCCCCCCSc1nc(NCCCCCCCCCCCC)nc(NCCN2CCCC2)n1 [Compound D3S18N12]	5.2%
CCCCCCCCCCCCCCCCCCSc1nc(NCCCCCCCCCCCCC)nc(NCCN2CCCC2)n1 [Compound D3S18N13]	1.0%
CCCCCCCCCCCCCCCCCCSc1nc(NCCCCCCCCCCCCCCC)nc(NCCN2CCCC2)n1 [Compound D3S18N15]	0.1%
CCCCCCCCCCCCCCCCCCSc1nc(NCCCCCCCCCCCCCCCC)nc(NCCN2CCCC2)n1 [Compound D3S18N16]	0.5%
CCCCCCCCCCCCCCCCCCNc1nc(NCCN2CCCC2)nc(SCCCCCCCCCCCCCCCCCC)n1 [Compound D3S18N18]	0.1%
CCCCCCNc1nc(NCCN2CCCCC2)nc(SCCCCCC)n1 [Compound D4S6N6]	0.3%
CCCCCCCNc1nc(NCCN2CCCCC2)nc(SCCCCCC)n1 [Compound D4S6N7]	0.0%
CCCCCCCCNc1nc(NCCN2CCCCC2)nc(SCCCCCC)n1 [Compound D4S6N8]	0.3%
CCCCCCCCCNc1nc(NCCN2CCCCC2)nc(SCCCCCC)n1 [Compound D4S6N9]	1.1%
CCCCCCCCCCCNc1nc(NCCN2CCCCC2)nc(SCCCCCC)n1 [Compound D4S6N11]	0.9%
CCCCCCCCCCCCNc1nc(NCCN2CCCCC2)nc(SCCCCCC)n1 [Compound D4S6N12]	0.7%
CCCCCCCCCCCCCNc1nc(NCCN2CCCCC2)nc(SCCCCCC)n1 [Compound D4S6N13]	2.1%
CCCCCCCCCCCCCCCNc1nc(NCCN2CCCCC2)nc(SCCCCCC)n1 [Compound D4S6N15]	0.4%
CCCCCCCCCCCCCCCCNc1nc(NCCN2CCCCC2)nc(SCCCCCC)n1 [Compound D4S6N16]	0.5%

Compound	Absolute mRNA transfection efficiency in HEK293 cells
CCCCCCCCCCCCCCCCCCNc1nc(NCCN2CCCCC2)nc(SCCCCCC)n1 [Compound D4S6N18]	1.8%
CCCCCCSc1nc(NCCN2CCCCC2)nc(SCCCCCC)n1 [Compound D4S6S6]	0.9%
CCCCCCCSc1nc(NCCN2CCCCC2)nc(SCCCCCC)n1 [Compound D4S6S7]	1.2%
CCCCCCCCSc1nc(NCCN2CCCCC2)nc(SCCCCCC)n1 [Compound D4S6S8]	0.5%
CCCCCCCCCSc1nc(NCCN2CCCCC2)nc(SCCCCCC)n1 [Compound D4S6S9]	0.7%
CCCCCCCCCCSc1nc(NCCN2CCCCC2)nc(SCCCCCC)n1 [Compound D4S6S10]	0.3%
CCCCCCCCCCCCSc1nc(NCCN2CCCCC2)nc(SCCCCCC)n1 [Compound D4S6S12]	0.2%
CCCCCCCCCCCCCCSc1nc(NCCN2CCCCC2)nc(SCCCCCC)n1 [Compound D4S6S14]	5.3%
CCCCCCCCCCCCCCCSc1nc(NCCN2CCCCC2)nc(SCCCCCC)n1 [Compound D4S6S15]	2.0%
CCCCCCCCCCCCCCCCSc1nc(NCCN2CCCCC2)nc(SCCCCCC)n1 [Compound D4S6S16]	5.1%
CCCCCCCCCCCCCCCCCCSc1nc(NCCN2CCCCC2)nc(SCCCCCC)n1 [Compound D4S6S18]	8.8%
CCCCCCCSc1nc(NCCCCCC)nc(NCCN2CCCCC2)n1 [Compound D4S7N6]	4.5%
CCCCCCCNc1nc(NCCN2CCCCC2)nc(SCCCCCCC)n1 [Compound D4S7N7]	3.4%
CCCCCCCCNc1nc(NCCN2CCCCC2)nc(SCCCCCCC)n1 [Compound D4S7N8]	0.5%
CCCCCCCCCNc1nc(NCCN2CCCCC2)nc(SCCCCCCC)n1 [Compound D4S7N9]	4.9%
CCCCCCCCCCCNc1nc(NCCN2CCCCC2)nc(SCCCCCCC)n1 [Compound D4S7N11]	1.0%
CCCCCCCCCCCCNc1nc(NCCN2CCCCC2)nc(SCCCCCCC)n1 [Compound D4S7N12]	0.6%
CCCCCCCCCCCCCNc1nc(NCCN2CCCCC2)nc(SCCCCCCC)n1 [Compound D4S7N13]	0.7%
CCCCCCCCCCCCCCCNc1nc(NCCN2CCCCC2)nc(SCCCCCCC)n1 [Compound D4S7N15]	2.6%
CCCCCCCCCCCCCCCCNc1nc(NCCN2CCCCC2)nc(SCCCCCCC)n1 [Compound D4S7N16]	1.3%
CCCCCCCCCCCCCCCCCCNc1nc(NCCN2CCCCC2)nc(SCCCCCCC)n1 [Compound D4S7N18]	7.9%
CCCCCCCSc1nc(NCCN2CCCCC2)nc(SCCCCCCC)n1 [Compound D4S7S7]	13.5%
CCCCCCCCSc1nc(NCCN2CCCCC2)nc(SCCCCCCC)n1 [Compound D4S7S8]	5.9%

Compound	Absolute mRNA transfection efficiency in HEK293 cells
CCCCCCCCCSc1nc(NCCN2CCCCC2)nc(SCCCCCCC)n1 [Compound D4S7S9]	3.7%
CCCCCCCCCCSc1nc(NCCN2CCCCC2)nc(SCCCCCCC)n1 [Compound D4S7S10]	2.7%
CCCCCCCCCCCSc1nc(NCCN2CCCCC2)nc(SCCCCCCC)n1 [Compound D4S7S11]	8.0%
CCCCCCCCCCCCSc1nc(NCCN2CCCCC2)nc(SCCCCCCC)n1 [Compound D4S7S12]	9.2%
CCCCCCCCCCCCCCSc1nc(NCCN2CCCCC2)nc(SCCCCCCC)n1 [Compound D4S7S14]	8.3%
CCCCCCCCCCCCCCCSc1nc(NCCN2CCCCC2)nc(SCCCCCCC)n1 [Compound D4S7S15]	6.7%
CCCCCCCCCCCCCCCCSc1nc(NCCN2CCCCC2)nc(SCCCCCCC)n1 [Compound D4S7S16]	8.8%
CCCCCCCCCCCCCCCCCCSc1nc(NCCN2CCCCC2)nc(SCCCCCCC)n1 [Compound D4S7S18]	4.5%
CCCCCCCCSc1nc(NCCCCCC)nc(NCCN2CCCCC2)n1 [Compound D4S8N6]	2.7%
CCCCCCCCSc1nc(NCCCCCCC)nc(NCCN2CCCCC2)n1 [Compound D4S8N7]	1.8%
CCCCCCCCNc1nc(NCCN2CCCCC2)nc(SCCCCCCCC)n1 [Compound D4S8N8]	0.6%
CCCCCCCCCNc1nc(NCCN2CCCCC2)nc(SCCCCCCCC)n1 [Compound D4S8N9]	2.3%
CCCCCCCCCCCNc1nc(NCCN2CCCCC2)nc(SCCCCCCCC)n1 [Compound D4S8N11]	0.3%
CCCCCCCCCCCCNc1nc(NCCN2CCCCC2)nc(SCCCCCCCC)n1 [Compound D4S8N12]	3.5%
CCCCCCCCCCCCCNc1nc(NCCN2CCCCC2)nc(SCCCCCCCC)n1 [Compound D4S8N13]	4.5%
CCCCCCCCCCCCCCCNc1nc(NCCN2CCCCC2)nc(SCCCCCCCC)n1 [Compound D4S8N15]	2.6%
CCCCCCCCCCCCCCCCNc1nc(NCCN2CCCCC2)nc(SCCCCCCCC)n1 [Compound D4S8N16]	1.9%
CCCCCCCCCCCCCCCCCCNc1nc(NCCN2CCCCC2)nc(SCCCCCCCC)n1 [Compound D4S8N18]	3.5%
CCCCCCCCSc1nc(NCCN2CCCCC2)nc(SCCCCCCCC)n1 [Compound D4S8S8]	9.9%
CCCCCCCCCSc1nc(NCCN2CCCCC2)nc(SCCCCCCCC)n1 [Compound D4S8S9]	14.3%
CCCCCCCCCCSc1nc(NCCN2CCCCC2)nc(SCCCCCCCC)n1 [Compound D4S8S10]	9.2%
CCCCCCCCCCCSc1nc(NCCN2CCCCC2)nc(SCCCCCCCC)n1 [Compound D4S8S11]	10.9%
CCCCCCCCCCCCSc1nc(NCCN2CCCCC2)nc(SCCCCCCCC)n1 [Compound D4S8S12]	1.0%
